Data as given in patent US20240100062A1, “Methods of Treatment With an Iboga Alkaloid” (priority 2022, published 2024).
“And” between values parts separate entries of the source, which are not always exact repeats. Identical values can stand only once. “Also recorded” adds a separate entry of the source.

Assays:
[1] = tested on: special operations veterans; experiment: Delis-Kaplan Executive Function System (D-KEFS), Example 1 study; format: in vivo, human
[2] = tested on: special operations veterans; experiment: Safety monitoring (adverse events, QTc by ECG), Example 1 study; format: in vivo, human
Procedure: With subjects in the fasting state, an intravenous infusion of 1 gram of magnesium sulfate was administered 1-2 hours prior to treatment. […] Medical staff (MD, RN, or EMT) were onsite at a ratio of at least 1 staff per 2 patients throughout treatment for monitoring and management, but no specific coaching or psychological support was provided during treatment.

[3] = tested on: special operations veterans; experiment: Clinician rated psychiatric assessments (PTSD, depression, anxiety) overall, Example 1 study; format: in vivo, human; settings: following treatment; sustained at one-month follow-up
Procedure: The safety and efficacy of ibogaine treatment in combination with a cardioprotective agent was evaluated in subjects with a history of TBI. At baseline, study participants were experiencing clinically significant levels of disability, PTSD, depression, and anxiety. […] Indeed, disability measures continued to improve, and psychiatric symptom remission and response rates one-month post-treatment remained high.
Clinician administered scales included CAPS-5 (Clinician-administered PTSD Scale for DSM-5), which is a gold standard assessment of PTSD symptom severity; MADRS (Montgomery-Asberg Depression Rating Scale), a measure for depressive symptom severity; and Hamilton-Anxiety Rating Scale (HAM-A) (Shear, M. K. et al., Depress. Anxiety 13, 166-178 (2001)) a measure for anxiety symptom severity; SCID-5 (Structured Clinical Interview for DSM-5) Overview for a historical and environmental context of symptom presentation; MINI DSM-5 (Mini International Neuropsychiatric Interview from DSM-5) for a structured psychodiagnostics assessment; BAT-L (Boston Assessment of TBI—Lifetime) for a lifetime history of TBI and blast exposure; and Ohio State University TBI Identification Method (Short Form) for a lifetime history of TBI. MADRS testing provides an indication of depressive symptoms, CAPS-5 provides an indication of PTSD and SIGH-A provides an indication of anxiety. […]

[4] = tested on: special operations veterans; experiment: Wechsler Adult Intelligence Scale (WAIS-IV) PSI and WMI, Example 1 study; format: in vivo, human
[5] = tested on: male veterans with a history of TBI; experiment: Pseudo-continuous arterial spin labeling MRI, cerebral blood flow (Example 3); format: in vivo, human; settings: paired t-test across baseline, first post-treatment scan and 1 month post-treatment; p<0.001
Procedure: Arterial spin labeling (ASL) MR was used to measure cerebral blood flow in some of the subjects of the subjects enrolled in the study of Example 1. As described in Example 3, pseudo-continuous ASL (pcASL) was performed on the subject at baseline, about 1 week after treatment, and one-month after treatment. […] A first metric of interest was change in net quantity (mL/100 g tissue/min) of blood entering different regions of the brain. Images of the left posterior orbital gyrus, left anterior insula, left and right cerebral white matter at baseline and 1-week post treatment (images not shown) were analyzed and compared. […] A paired t-test across 3 time points—baseline (pre-treatment), 1 week post-treatment, and 1 month post-treatment—was employed.
A second metric of interest was regression between change in clinical scores versus change in relative cerebral blood perfusion from baseline to one-month post treatment. Multiple regression with clinical scores at baseline and one-month post treatment was used. […]
A first metric of interest was change in net quantity (mL/100 g tissue/min) of blood entering different regions of the brain. Images of the left posterior orbital gyrus, left anterior insula, left and right cerebral white matter at baseline and 1-2 days post treatment (images not shown) were analyzed and compared. […]

[6] = tested on: cortical neuron; settings: in vitro; cited from earlier work
[7] = tested on: special operations veterans; experiment: Brief Visuospatial Memory Test-Revised (BVMT-R), Example 1 study; format: in vivo, human
[8] = tested on: BDNF and GDNF; settings: cited from earlier work
[9] = tested on: special operations veterans; experiment: Resting-state fMRI functional connectivity (Example 2); format: in vivo, human; settings: within a few days after treatment; persisted to one-month post treatment; 5000 pairs tested
From the text: The human brain is a series of well-organized and optimized series of efficient networks. Disease states can be characterized as abnormalities or inefficiencies in the networks and/or the global organization. Resting-state functional connectivity is one method to characterize disease states and effects of interventions. The functional connectivity networks evaluated in a region of interest in the brain included those identified in Table 2-1 of Example 2.
The subjects were asked to clear their mind of any particular thoughts in order to capture the brain at rest or in its ‘default’ state. An a priori region of interest was determined for analysis and 5000 functional connectivity pairs were tested. The underlying alteration in brain patterns (connectivity) due to an intervention was evaluated.

[10] = tested on: special operations veterans; design: species or system human; settings: in vivo
[11] = tested on: special operations veterans; experiment: Lag projection analysis of BOLD fMRI; format: in vivo, human; settings: baseline vs about four days post treatment; left orbitofrontal gyrus (lateral and anterior) and inferior frontal gyrus (orbital and triangular); fwec p<0.001
Procedure: fMRI data was also analyzed to inspect activity patterns as a function of time. A lag projection analysis measures temporal dynamics of blood oxygen level-dependent (BOLD) fMRI (Mitra et al., PNAS, E2235-E2244, 2015). Directed flow transfer of information is analyzed by comparing lag-correlation shift between voxel pairs. The average lag structure of a voxel indicates relative earliness or lateness in the brain, as a measure of whether the region is a source or sink of information. A paired T-test of fMRI images at baseline and about four days post treatment was done. […] These regions are involved in language formation, response inhibition and regulating goal-directed behavior. Slowing may reflect sustained processing and influence over the brain across long time scales.

[12] = tested on: special operations veterans; experiment: Predicted brain age from MRI (brain age model); format: in vivo, human
From the text: A predictive model of normal aging defined using machine learning in healthy individuals, based on magnetic resonance imaging-derived estimates of gray matter and white matter (Id.) was applied to the MRI images from the subjects enrolled in the study of Example 1. […] There was a significant reversal of brain age from baseline to one month after treatment. The mean decrease in brain age was 1.3 years (corrected p=0.03).
At baseline, the brain age estimate for the 24 subjects was 40.89 years. […] The average decrease in brain age from baseline one month after treatment was 1.4 years.

[13] = tested on: humans; settings: in vivo; cited from earlier work

For `CCC1CC2CC3c4[nH]c5ccc(OC)cc5c4CCN(C2)C13` (stereo not shown) [ibogaine, Ibogaine], which “Phonemic Fluency (D-KEFS Verbal Fluency), mean ± SD” value ([1]; 1-mo. post, baseline 57.0 ± 11.7, p(FDR) <0.001) is on record?
Its value is 64.0 ± 10.1 T score.

What about the “Cognitive Flexibility Composite, D” value ([1]; baseline vs 1-month post) of the same compound?
Its value is 0.74.

What about the “Cognitive Inhibition (D-KEFS Color/Word Interference, Condition 3), D” value ([1]; baseline vs 1-month post) of the same compound?
The value was 0.62.

And the “Phonemic Fluency (D-KEFS Verbal Fluency), D” value ([1]; baseline vs 1-month post)?
Its value is 1.11.

What about the “Problem Solving (D-KEFS TT, Total Achievement Score), D” value ([1]; baseline vs 1-month post) of the same compound?
The value was 0.44.

And the “Semantic Fluency (D-KEFS Verbal Fluency), D” value ([1]; baseline vs 1-month post)?
Its value is 0.24.

What about the “Cognitive Flexibility Composite, D” value ([1]; baseline vs 1-wk post) of the same compound?
The value was 0.43.

And the “Phonemic Fluency (D-KEFS Verbal Fluency), D” value ([1]; baseline vs 1-wk post)?
Its value is 0.52.

And the “Problem Solving (D-KEFS TT, Total Achievement Score), D” value ([1]; baseline vs 1-wk post)?
Its value is 0.49.

And the “Semantic Fluency (D-KEFS Verbal Fluency), D” value ([1]; baseline vs 1-wk post)?
Its value is 0.02.

What about the “Language (semantic fluency) performance change” value ([1]; post treatment time points) of the same compound?
Its value is “No significant performance changes”.

And the “Participants treated for insomnia” value ([2]; 1 participant, during oneirogenic effects)?
The value was 3%.

What about the “Participants treated for hypertension” value ([2]; 2 participants, during oneirogenic effects) of the same compound?
Its value is 7%.

And the “Participants treated for anxiety” value ([2]; 3 participants, during oneirogenic effects)?
The value was 10%.

And the “Participants treated for nausea” value ([2]; 7 participants, during oneirogenic effects)?
Its value is 23%.

What about the “Participants treated for headache” value ([2]; 12 participants, during oneirogenic effects) of the same compound?
Its value is 40%.

And the “Transient cerebellar signs such as mild ataxia and intention tremor” value ([2]; 30 participants)?
The value was “All participants experienced transient cerebellar signs”.

What about the “Unexpected or serious adverse events” value ([2]; 30 participants, 12.1±1.2 mg/kg oral ibogaine with IV magnesium sulfate, 1.2 mg/kg) of the same compound?
Its value is “no unexpected or serious treatment-emergent side effects; also recorded: no unexpected or serious adverse events”.

And the QTc prolongation ([2]; continuous 5-lead ECG 12-16 hours after ibogaine)?
Its QTc prolongation is “no instances of a concerning prolongation of QTc”.

What about the “Cohen's D on clinician rated psychiatric assessments” value [3] of the same compound?
The value was > 2.

And the “Working Memory (WMI, WAIS-IV), mean ± SD” value ([4]; 1-wk post, baseline 55.1 ± 8.3, p(FDR) 0.034)?
Its value is 57.0 ± 9.5 T score.

What about the “Working Memory (WMI, WAIS-IV), D” value ([4]; baseline vs 1-month post) of the same compound?
Its value is 0.31.

What about the “Processing Speed (PSI, WAIS-IV), D” value ([4]; baseline vs 1-wk post) of the same compound?
Its value is 0.97.

And the “Working Memory (WMI, WAIS-IV), D” value ([4]; baseline vs 1-wk post)?
Its value is 0.37.

And the “Change in absolute cerebral blood flow” value [5]?
The value was “No significant changes”.

And the “Cortical neuron dendritic arbor complexity” value [6]?
Its value is “increases cortical neuron dendritic arbor complexity”.

And the “Visuospatial Memory (BVMT-R), D” value ([7]; baseline vs 1-month post)?
Its value is 0.32.

What about the “Visuospatial Memory (BVMT-R), D” value ([7]; baseline vs 1-wk post) of the same compound?
The value was 0.50.

What about the Visual memory improvement ([7]; both timepoints) of the same compound?
Its Visual memory improvement is “significant improvement in visual memory at both timepoints”.

What about the “Transcription of neurotrophic factors including BDNF and GDNF” value [8] of the same compound?
The value was “increases the transcription of neurotrophic factors”.

What about the “Reorganization of functional connection pairs in the brain networks, number of pairs” value [9] of the same compound?
The value was 22.

And the “Detection (CPT-3 Detection), D” value [10]?
The value was 0.86.

What about the “Reaction Time (CPT-3 Reaction Time), D” value [10] of the same compound?
The value was 0.52 and 0.29.

And the “Reaction Time (CPT-3 Reaction Time), mean ± SD” value [10]?
Its value is 44.1 ± 6.8 T score and 46.4 ± 8.1 T score.

What about the “Slowing of reaction time, D” value [10] of the same compound?
The value was 0.29-0.52.

What about the “Sustained Attention (CPT-3 Hit Reaction Time Block Change), mean ± SD” value [10] of the same compound?
Its value is 50.8 ± 7.9 T score and 51.2 ± 7.7 T score.

And the “Lag structure change (BOLD fMRI)” value [11]?
Its value is “relative slowing”.

And the “Mean decrease in brain age” value ([12]; baseline to one month after treatment, corrected p=0.03 (FIG. 9A))?
The value was 1.3 years.

And the “Estimated brain age compared to accelerated intermittent theta burst stimulation (aiTBS)” value ([12]; one-month post treatment (FIG. 9D))?
Its value is “provided a reducing in estimated brain age one-month post treatment compared to aiTBS”.

And the “Brain age contrast Estimate, Baseline & 1 wk. vs 1 mo.” value ([12]; weights .5-.5-1, Sig 0.008, 95% 0.352 to 2.087)?
The value was 1.220 years.

And the “Incidence of cardiac arrest in people treated” value [13]?
The value was “Approximately 1 in 300 people”.

What about the “Neurotoxicity reported in humans” value [13] of the same compound?
The value was “only transient ataxia has been reported in humans”.

And the QT interval prolongation [13]?
Its QT interval prolongation is “instances of subsequent fatal arrhythmia”.
